Reference: patent publication EP4707280A1, “1,4-CINEOLE DERIVATIVE AND INTERMEDIATE THEREOF, HERBICIDE CONTAINING SAID DERIVATIVE AS ACTIVE INGREDIENT, METHOD FOR USING HERBICIDE, AND METHOD FOR PREPARING AGROCHEMICAL COMPOSITION” (HOKKO CHEMICAL INDUSTRY CO., LTD., priority 2023, dated 2024)

Assays:
Assay type in all cases: in vivo
[1] = system: Echinochloa crus-galli var. formosensis; assay: Test Example 1: herbicidal effect test by soil application in paddy rice; details: 120 g active ingredient per 10 ares, applied immediately after sowing, flooded pots, 14 days after application; for pest or weed control at 1200 g/ha: Echinochloa crus-galli, soil, 336 h, read-out: weed inhibition rate
In short: (§1)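 Treatment: 120 g active ingredient per 10 ares as a water-diluted emulsifiable concentrate, dropped onto flooded pots immediately after sowing. Thirty seeds per species went 0–1 cm into puddled paddy soil with 16:16:16 fertilizer, with ~3 cm flooding maintained in a glass greenhouse.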

[2] = system: Scirpus juncoides; assay: as above; details: 120 g active ingredient per 10 ares, applied immediately after sowing, flooded pots, 14 days after application; for pest or weed control at 1200 g/ha: Schoenoplectiella juncoides, soil, 336 h, read-out: weed inhibition rate
In short: as §1

[3] = system: Echinochloa crus-galli var. formosensis; assay: Test Example 2: herbicidal effect test by application during growth period of paddy rice; details: 120 g per 10 ares, applied seven days after sowing, flooded pots, 14 days after application; for inhibition at 1200 g/ha: Echinochloa crus-galli, read-out: weed inhibition rate
In short: (§2)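 Flooded paddy pot test, greenhouse. Seeds 30/species, 0–1 cm depth, water ~3 cm. EC diluted in water, dropper-applied 7 d post-sowing at 120 g a.i./10 a. Inhibition rate (%) read 14 d after treatment; n=2.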

[4] = system: Scirpus juncoides; assay: as above; details: 120 g per 10 ares, applied seven days after sowing, flooded pots, 14 days after application; for inhibition at 1200 g/ha: Schoenoplectiella juncoides, read-out: weed inhibition rate
In short: as §2

[5] = system: Digitaria ciliaris; assay: Test Example 3: herbicidal effect test by soil application in upland field; details: 120 g per 10 ares, sprayed one day after sowing, 14 days after application; for inhibition at 1200 g/ha: Digitaria ciliaris, read-out: weed inhibition rate
In short: (§3)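 Weed inhibition (%) was assessed 14 days after treatment, in duplicate per concentration group. Seeds had been mixed into the upper 1 cm of upland alluvial loam, and the soil surface was sprayed one day later with the diluted emulsifiable concentrate at 120 g active ingredient per 10 ares.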

[6] = system: Echinochloa crus-galli; assay: as above; details: 120 g per 10 ares, sprayed one day after sowing, 14 days after application; for inhibition at 1200 g/ha: Echinochloa crus-galli, read-out: weed inhibition rate
In short: as §3

[7] = system: Digitaria ciliaris; assay: Test Example 4: herbicidal effect test by stem and leaf treatment in upland field; details: 120 g per 10 ares, sprayed seven days after sowing, upland soil, 14 days after application; for inhibition at 1200 g/ha: Digitaria ciliaris, read-out: weed inhibition rate
[8] = system: Echinochloa crus-galli; assay: as above; details: 120 g per 10 ares, sprayed seven days after sowing, upland soil, 14 days after application; for inhibition at 1200 g/ha: Echinochloa crus-galli, read-out: weed inhibition rate
[9] = system: Echinochloa crus-galli var. formosensis; assay: Test Example 5: herbicidal effect test by soil application in paddy rice (low dose); details: 7.5 g per 10 ares, applied immediately after sowing, flooded pots, 14 days after application; for inhibition at 75 g/ha: Echinochloa crus-galli, soil, 336 h, read-out: weed inhibition rate
In short: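 Pre-emergence paddy test: seeds sown 0–1 cm (30 each), pots flooded ~3 cm, greenhouse. EC dilution dropped into water right after sowing, 7.5 g a.i./10 a. Duplicate pots; weed inhibition rate (%) by formula, day 14.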

[10] = system: Echinochloa crus-galli var. formosensis; assay: Test Example 6: herbicidal effect test by application during growth period of paddy rice (low dose); details: 7.5 g per 10 ares, applied seven days after sowing, flooded pots, 14 days after application; for inhibition at 75 g/ha: Echinochloa crus-galli, read-out: weed inhibition rate
In short: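 Emulsifiable concentrate, water-diluted, dropped onto flooded paddy pots 7 days post-sowing at 7.5 g active ingredient/10 a. Greenhouse-grown weeds; percent inhibition scored at day 14 after treatment.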

[11] = system: Digitaria ciliaris; assay: Test Example 7: herbicidal effect test by soil application in upland field (low dose); details: 7.5 g per 10 ares, sprayed one day after sowing, 14 days after application; for inhibition at 75 g/ha: Digitaria ciliaris, read-out: weed inhibition rate
Method: (§4) The present test was conducted in duplicate for each chemical concentration group, and the weed inhibition rate (%) was determined 14 days after chemical application using the following formula (Math. 1). [formula]
(§5) Pots with an area of 36 cm^2 were filled with upland soil (alluvial loam), twenty seeds each of weeds of Digitaria ciliaris, and Echinochloa crus-galli were uniformly mixed with the top 1 cm layer of soil and the surface was lightly pressed down. One day after sowing, an emulsifiable concentrate prepared according to Formulation Example 5 using the compound shown below was diluted with water, and the diluted solution was sprayed onto the soil surface at a rate of 100 liters per 10 ares. The amount of the active ingredient to be applied was equivalent to 7.5 g per 10 ares. Fourteen days after chemical application, the herbicidal effect was evaluated according to the same criteria as in Test Example 1.

[12] = system: Echinochloa crus-galli; assay: as above; details: 7.5 g per 10 ares, sprayed one day after sowing, 14 days after application; for inhibition at 75 g/ha: Echinochloa crus-galli, read-out: weed inhibition rate
Method: as §4, §5

[13] = system: Digitaria ciliaris; assay: Test Example 8: herbicidal effect test by stem and leaf treatment in upland field (low dose); details: 7.5 g per 10 ares, sprayed seven days after sowing, upland soil, 14 days after application; for inhibition at 75 g/ha: Digitaria ciliaris, read-out: weed inhibition rate
[14] = system: Echinochloa crus-galli; assay: as above; details: 7.5 g per 10 ares, sprayed seven days after sowing, upland soil, 14 days after application; for inhibition at 75 g/ha: Echinochloa crus-galli, read-out: weed inhibition rate

CC(C)[C@]12CC(OCc3ccccc3)[C@](C)(C[C@@H]1Cl)O2 (mixture of isomers) [1-8, (1R,2S,4S,SR)-5-benzyloxy-2-chloro-1-isopropyl-4-methyl-7-oxabicyclo[2.2.1]heptane]
≥ 80%: pest or weed control at 1200 g/ha [1] | pest or weed control at 1200 g/ha [2] | inhibition at 1200 g/ha [3] | inhibition at 1200 g/ha [4] | inhibition at 1200 g/ha [5] | inhibition at 1200 g/ha [6] | inhibition at 1200 g/ha [7] | inhibition at 1200 g/ha [8] | inhibition at 75 g/ha [9] | inhibition at 75 g/ha [10] | inhibition at 75 g/ha [11] | inhibition at 75 g/ha [12] | inhibition at 75 g/ha [13] | inhibition at 75 g/ha [14]

CC(C)[C@]12CC(OCc3c(Cl)cccc3Cl)[C@](C)(C[C@@H]1I)O2 (mixture of isomers) [1-779, (1R,2S,4S,SR)-5-[(2,6-dichlorophenyl)methoxy]-2-iodo-1-isopropyl-4-methyl-7-oxabicyclo[2.2.1]heptane]
≥ 80%: pest or weed control at 1200 g/ha [1] | pest or weed control at 1200 g/ha [2] | inhibition at 1200 g/ha [3] | inhibition at 1200 g/ha [4] | inhibition at 1200 g/ha [5] | inhibition at 1200 g/ha [6] | inhibition at 1200 g/ha [7] | inhibition at 1200 g/ha [8] | inhibition at 75 g/ha [9] | inhibition at 75 g/ha [10] | inhibition at 75 g/ha [11] | inhibition at 75 g/ha [12] | inhibition at 75 g/ha [13] | inhibition at 75 g/ha [14]

CO[C@H]1C[C@]2(C)O[C@@]1(C(C)C)CC2OCC=C(C)C (mixture of isomers) [1-799, (1R,2S,4S,SR)-1-isopropyl-2-methoxy-4-methyl-5-(3-methylbut-2-enoxy)-7-oxabicyclo[2.2.1]heptane]
≥ 80%: pest or weed control at 1200 g/ha [1] | pest or weed control at 1200 g/ha [2] | inhibition at 1200 g/ha [3] | inhibition at 1200 g/ha [4] | inhibition at 1200 g/ha [5] | inhibition at 1200 g/ha [6] | inhibition at 1200 g/ha [7] | inhibition at 1200 g/ha [8] | inhibition at 75 g/ha [9] | inhibition at 75 g/ha [10] | inhibition at 75 g/ha [11] | inhibition at 75 g/ha [12] | inhibition at 75 g/ha [13] | inhibition at 75 g/ha [14]

CC#CCOC1C[C@]2(C(C)C)O[C@@]1(C)C[C@@H]2OC (mixture of isomers) [1-801, (1R,2S,4S,SR)-5-but-2-ynoxy-1-isopropyl-2-methoxy-4-methyl-7-oxabicyclo[2.2.1]heptane]
≥ 80%: pest or weed control at 1200 g/ha [1] | pest or weed control at 1200 g/ha [2] | inhibition at 1200 g/ha [3] | inhibition at 1200 g/ha [4] | inhibition at 1200 g/ha [5] | inhibition at 1200 g/ha [6] | inhibition at 1200 g/ha [7] | inhibition at 1200 g/ha [8] | inhibition at 75 g/ha [9] | inhibition at 75 g/ha [10] | inhibition at 75 g/ha [11] | inhibition at 75 g/ha [12] | inhibition at 75 g/ha [13] | inhibition at 75 g/ha [14]

CC(C)[C@]12C[C@@H](OCc3ccccc3F)[C@](C)(C[C@@H]1C)O2 (racemic) [1-1555, (1SR,2RS,4RS,5SR)-2-[(2-fluorophenyl)methoxy]-1,5-dimethyl-4-isopropyl-7-oxabicyclo[2.2.1]heptane]
≥ 80%: pest or weed control at 1200 g/ha [1] | pest or weed control at 1200 g/ha [2] | inhibition at 1200 g/ha [3] | inhibition at 1200 g/ha [4] | inhibition at 1200 g/ha [5] | inhibition at 1200 g/ha [6] | inhibition at 1200 g/ha [7] | inhibition at 1200 g/ha [8] | inhibition at 75 g/ha [9] | inhibition at 75 g/ha [10] | inhibition at 75 g/ha [11] | inhibition at 75 g/ha [12] | inhibition at 75 g/ha [13] | inhibition at 75 g/ha [14]

CC(C)[C@]12C[C@@H](OCc3ccccc3F)[C@](C)(C=C1OS(=O)(=O)C(F)(F)F)O2 (racemic) [3-680]
≥ 80%: weed inhibition rate [1] | weed inhibition rate [2] | weed inhibition rate [3] | weed inhibition rate [4] | weed inhibition rate [5] | weed inhibition rate [6] | weed inhibition rate [7] | weed inhibition rate [8] | weed inhibition rate [9] | weed inhibition rate [10] | weed inhibition rate [11] | weed inhibition rate [12] | weed inhibition rate [13] | weed inhibition rate [14]

Cc1ccccc1COC1CC2(C(C)C)C=CC1(C)O2 (stereo not shown) [3-753, 4-methyl-5-[(2-methylphenyl)methoxy]-1-isopropyl-7-oxabicyclo[2.2.1]hept-2-ene]
≥ 80%: pest or weed control at 1200 g/ha [1] | pest or weed control at 1200 g/ha [2] | inhibition at 1200 g/ha [3] | inhibition at 1200 g/ha [4] | inhibition at 1200 g/ha [5] | inhibition at 1200 g/ha [6] | inhibition at 1200 g/ha [8] | inhibition at 75 g/ha [9] | inhibition at 75 g/ha [10] | inhibition at 75 g/ha [11] | inhibition at 75 g/ha [12] | inhibition at 75 g/ha [13] | inhibition at 75 g/ha [14]
